Measured values as given in patent publication US20080300298A1, “Honokiol Derivates For the Treatment of Proliferative Disorders” (priority 2005, published 2008).
In brackets after ≈: the same amount, converted by molar mass. Read-outs that look alike come from different tables or passages of the source.

Assays:
[1] = system: KBM-5 cells; settings: KBM-5, 72 h, with TNF, paclitaxel or doxorubicin
Description: KBM-5 cells (5000 cells/0.1 ml) were incubated at 37° C. with TNF, paclitaxel or doxorubicin in the presence and absence of 5 mM honokiol as indicated for 72 h, and the viable cells were assayed using the MTT reagent. The results are expressed as mean cytotoxicity ±SD from triplicate cultures.
Cytotoxicity assay Cytotoxicity was assayed by the modified tetrazolium salt 3-(4-5-dimethylthilozol-2-yl)-2-5-diphenyl-tetrazolium bromide (MTT) assay as described previously (Bharti, A. C., et al. 2004 J. Biol. Chem. 279:6065-6076).
The effect of honokiol on TNF and chemotherapeutic agent-induced apoptosis was examined by the MTT assay.

[2] = system: human promyelocytic leukemic cell line HL-60; settings: cited from earlier work
[3] = system: PARP in KBM-5 cells; experiment: PARP cleavage assay; assay type: cell-based, human; settings: KBM-5, TNF 1 nM with honokiol (25 mM printed)
Description: (D) depicts that honokiol enhances TNF-induced cell death.
PARP cleavage assay. For detection of cleavage products of PARP, whole-cell extracts were prepared by subjecting honokiol-treated cells to lysis in lysis buffer (20 mM Tris, pH 7.4; 250 mM NaCl; 2 mM EDTA, pH 8.0; 0.1% TritonX-100; 0.01 mg/ml aprotinin; 0.005 mg/ml leupeptin; 0.4 mM PMSF; and 4 mM NaVO4). Lysates were spun at 14000 rpm for 10 min to remove insoluble material, resolved by 10% SDS PAGE, and probed with PARP antibodies.
By using caspase-activated PARP cleavage, it was shown that the enhanced cytotoxicity was due to apoptosis. TNF-induced PARP cleavage was enhanced in the honokiol-treated cells (FIG. 26C).

[4] = system: CH12.hCD40-LMP1 B cells; experiment: CD40/LMP1 mediated cytokine and IgM production; assay type: cell-based, mouse
Description: IL-6 and TNF-a levels in culture supernatants were determined by ELISA. Subsequent IgM production by CH12.LX cells is also affected, as determined by assaying IgM secretion by CH12.hCD40-LMP1 cells. IgM secretion was measured by hemolytic plaque assay, as previously described (GA Bishop. 1991. J. Immunol. 147(4): 1107-1114).

[5] = system: human multiple myeloma (MM) cell lines; experiment: colorimetric (WST-8) growth assay; assay type: cell-based; settings: for IC50: Homo sapiens
Excerpt: Cells: Dexamethasone (Dex)-sensitive MM.1S (wild-type p53) and Dex-resistant MM.1R, RPMI 8226-Dox40 (doxorubicin resistant) and RPMI 8226-LR5 (melphalan resistant) human multiple myeloma (MM) cell lines were used. RPMI-8226 and U266 cells were obtained from the American Type Culture Collection (Rockville, Md.). SU-DHL-4 cells were also utilized. Fresh peripheral blood mononuclear cells (PBMNCs) were obtained from healthy subjects after informed consent. The PBMNC were separated from heparinized peripheral blood by Ficoll-Hipaque density sedimentation. BM specimens were acquired from patients with MM after obtaining informed consent and mononuclear cells were separated by Ficoll-Hipaque density sedimentation. Cells were cultured at 37° C. in RPMI 1640 containing 10% fetal bovine serum (FBS; Sigma, St Louis, Mo.), […], 100 U/mL penicillin, and 100 μg/mL streptomycin (Gibco, Grand Island, N.Y.).
Reagents: Honokiol (HNK; Calbiochem, San Diego, Calif.) was dissolved in ethanol at 20 mg/ml stock solution. Recombinant human interleukin-6 (IL-6), vascular endothelial growth factor (VEGF) and insulin-like growth factor-1 (IGF-1) (R&D Systems, Minneapolis, Minn.) were reconstituted with sterile PBS containing 0.1% FBS (IL-6 and VEGF) and 10 mM of acetic acid containing 0.1% FBS (IGF-1), respectively. Pan-caspase inhibitor z-VAD-fmk (Bachem, Bubendorf, Switzerland) was dissolved in methanol. These reagents were stored at −20° C. and diluted by media just before the use. Doxorubicin (Sigma, St Louis, Mo.) was dissolved in sterile water at the concentration of 3.45 mM. […] Absorbance readings at a wavelength of 450 nm were taken on a spectrophotometer (Molecular Devices Corp., Sunnyvale, Calif.).
HNK inhibits growth of MM cell lines. To identify the therapeutic potential of HNK, MM cell lines and normal PBMNCs were cultured at indicated concentration with HNK for 48 h, and growth was determined by calorimetric assays. […] FIGS. 6A and B show growth inhibition in MM cell lines by HNK as assessed by calorimetric assay after 48 h-culture. […]

## C=CCc1ccc(O)c(-c2ccc(O)c(CC=C)c2)c1 [HNK, Honokiol]
[1]
  cytotoxic effects of TNF and chemotherapeutic agents (MTT): enhanced the cytotoxic effects of TNF, paclitaxel, and doxorubicin
[2]
  IC50 value: less than 100 ng/ml
[3]
  TNF-induced PARP cleavage: enhanced
[4]; CH12.LX cells transfected with hCD40-LMP1, not IL-10 or IL-4
  CD40/LMP1 mediated IL-6, TNF-a production: inhibits CD40/LMP1 mediated IL-6, TNF-a production in a dose-dependent manner
[4]; CH12.hCD40-LMP1 cells
  IgM secretion (hemolytic plaque assay): inhibited IgM production
[5]; drug sensitive RPM18226, U266 and MM.1S cells, 48 h, read-out: fifty percent inhibition (IC50) at 48 h
  IC50: 8 to 10 µg/mL (≈ 30 to 37.5 µM)
[5]; including Melphalan-, Doxorubicin- and Dex-resistant cell lines, read-out: IC50 of growth inhibition of MM cell lines
  IC50: < 10 µg/mL
[5]; RPM18226-Dox40, RPM18226-LR5 and MM.1R cells, 48 h
  growth of drug resistant cell lines: IC50 values similar to parental drug-sensitive cell lines
